What was measured:
TA-CA1 synapses = assay: Acute slice electrophysiology: fEPSPs at TA-CA1 synapses after in vivo injection; design: species or system rat
Description: Acute slice electrophysiology. Standard methods were used to prepare 400-μm-thick transverse hippocampal slices. Dissection and recording saline contained: 124 mM NaCl, 3 mM KCl, 1.25 mM NaH2PO4, 1.5 mM MgSO4, 2.5 mM CaCl2, 26 mM NaHCO3, and 10 mM glucose, bubbled with 95% O2/5% CO2. Slices were then transferred to a submersion-type recording chamber and perfused at 0.5 2 ml/min at 20-22° C. Picrotoxin (100 μM) and CGP52432 (2 μM) were included to block GABAA and GABAB receptors, and the CA3 region was removed with a scalpel. Because TA-CA1 synapses are electrotonically remote from CA1 cell somata, extracellular recording of local field excitatory postsynaptic potentials (fEPSPs) was used. Recording pipettes (3-5 MSΩ) contained extracellular saline and were placed in stratum lacunosum-moleculare (SLM) to record TA-CA1 responses. fEPSPs were amplified 1000×, filtered at 3 kHz, and digitized at 10 kHz. Concentric bipolar tungsten electrodes were placed >500 μm from the […] in SLM for TA afferents. Stimuli (100 μs) were delivered at 0.05 Hz.
As in previous work (Kallarackal et al., 2013), Mg2+-free saline was used to produce a robust NMDAR-mediated component of the fEPSP for quantification of AMPAR-mediated synaptic excitation. 3-5 consecutive responses were averaged and fEPSP slope was calculated over a 1-3 ms window. […] For NMDA responses, DNQX (50 μM) was bath applied for 15 min and the slope was calculated over a 3-5 ms window in the rising phase of the response, 5-10 ms after its initiation. […]
The inventors used extracellular electrophysiological recording of fEPSPs at TA-CA1 synapses in SLM of area CA1 in brain slices prepared from unstressed rats, rats subjected to ten days of CRS and given a vehicle injection 24 hrs earlier, and rats subjected to ten days of CRS and given an L-655,708 injection 24 hrs earlier (0.7 mg/kg, i.p.). These were the same rats used for the behavioral analyses in FIG. 6. fEPSPs were recorded in ACSF lacking added Mg2+ so as to unblock NMDA receptors. […]

[1] = target: GABAARs containing the alpha5 subunit (Homo sapiens, UniProt P18507+P31644); conditions: Atack et al., 2005; 2006; cited from earlier work
GABAARs containing the alpha5 subunit, sequence (P31644 32-462): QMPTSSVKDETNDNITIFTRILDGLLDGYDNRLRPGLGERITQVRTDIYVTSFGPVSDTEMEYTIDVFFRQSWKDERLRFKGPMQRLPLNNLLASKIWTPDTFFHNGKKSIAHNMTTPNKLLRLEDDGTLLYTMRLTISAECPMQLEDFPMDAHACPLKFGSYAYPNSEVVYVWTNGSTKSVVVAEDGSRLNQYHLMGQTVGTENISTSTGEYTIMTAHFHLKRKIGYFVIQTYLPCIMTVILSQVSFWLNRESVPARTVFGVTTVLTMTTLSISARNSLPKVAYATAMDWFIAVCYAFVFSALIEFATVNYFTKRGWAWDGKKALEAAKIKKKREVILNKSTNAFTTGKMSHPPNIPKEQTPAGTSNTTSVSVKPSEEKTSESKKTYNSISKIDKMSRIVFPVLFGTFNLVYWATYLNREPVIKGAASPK
GABAARs containing the alpha5 subunit, sequence (P18507 40-475): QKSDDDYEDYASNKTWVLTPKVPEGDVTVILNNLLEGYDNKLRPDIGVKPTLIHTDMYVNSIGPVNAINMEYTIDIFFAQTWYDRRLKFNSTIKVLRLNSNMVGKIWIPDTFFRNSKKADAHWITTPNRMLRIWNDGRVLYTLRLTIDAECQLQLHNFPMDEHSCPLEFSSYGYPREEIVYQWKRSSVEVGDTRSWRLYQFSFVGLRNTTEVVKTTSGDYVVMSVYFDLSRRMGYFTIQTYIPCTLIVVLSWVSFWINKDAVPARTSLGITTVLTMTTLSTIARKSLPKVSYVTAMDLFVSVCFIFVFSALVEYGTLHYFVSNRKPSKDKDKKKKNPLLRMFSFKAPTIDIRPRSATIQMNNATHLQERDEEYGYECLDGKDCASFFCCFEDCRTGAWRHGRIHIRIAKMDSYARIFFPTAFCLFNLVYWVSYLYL
GABAARs containing the alpha5 subunit, sequence (P28472 26-473 partner): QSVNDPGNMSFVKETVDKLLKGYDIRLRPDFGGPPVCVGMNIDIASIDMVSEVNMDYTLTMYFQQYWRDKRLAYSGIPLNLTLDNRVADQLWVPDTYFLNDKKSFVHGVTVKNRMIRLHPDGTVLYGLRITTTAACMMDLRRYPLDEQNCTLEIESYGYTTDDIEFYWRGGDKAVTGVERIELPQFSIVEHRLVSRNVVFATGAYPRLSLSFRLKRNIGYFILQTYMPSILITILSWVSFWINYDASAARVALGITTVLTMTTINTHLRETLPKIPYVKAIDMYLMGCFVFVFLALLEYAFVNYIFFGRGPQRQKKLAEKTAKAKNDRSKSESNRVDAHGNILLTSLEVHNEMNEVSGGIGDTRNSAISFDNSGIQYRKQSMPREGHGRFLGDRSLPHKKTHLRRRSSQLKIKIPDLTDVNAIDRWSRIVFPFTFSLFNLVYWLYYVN

unstressed rats = assay: Sucrose preference and social interaction tests in unstressed rats; format: in vivo, rat; conditions: 24 hrs after injection
Description: Sucrose preference test (SPT). Rats were given a choice between two bottles containing tap water or a 1% sucrose solution (Rygula et al., 2006). Testing was conducted overnight (16 hours), including the full duration of their dark phase. Animals were first trained with both bottles while group-housed. For subsequent tests, including during the baseline period, animals were individually housed. Sucrose preference was calculated as amount of the sucrose solution consumed as a percentage of the total amount of liquid consumed.
Social interaction test (SIT). As described previously (Berton et al., 2006), rats were placed in a plastic enclosure (82×82 cm) with a 5×5 grid of squares (16.4×16.4 cm) visible underneath the clear plastic flooring. A small translucent perforated plastic box (20×16 cm) was placed against the center of one wall of the arena. […]
Each test consisted of a “target-absent” trial followed by a “target-present” trial. During testing, an individual test rat was placed in the center of the arena and, after 30s of adaptation, the rat's movements were recorded with the video camera for 2.5 minutes. […]
Results were quantified as the percentage of time spent in the “interaction zone” (the five grid squares immediately surrounding the plastic cage) as measured for both the “target-absent” and “target-present” trials. […]

[2] = system: amnestic properties of the anesthetic etomidate; conditions: 0.7 mg/kg i.p.; Martin et al (2009); cited from earlier work
[3] = system: str. pyramidale of area CA1 and NAc shell; assay: In vivo field potential recording of oscillatory activity; design: species or system rat
Description: A1. A 60 min period of continuous recording of spontaneous field potential activity is made under dim illumination. Rats are then injected with either L-665,708 or vehicle, and placed back in the tube for an additional 60-90 min of recording. Discrete fast Fourier transforms are made on 60s-long recording segments for preparation of spectrograms. Oscillation power (area under the curve) is integrated for different frequency bandwidths for power spectral density plots (Θ=3-7 Hz; α=8-12 Hz; β=13-29 Hz; γ=30-80 Hz) (Buhl et al., 1998; Raver et al., 2013). Just as with ketamine (e.g. Kittleberger et al., 2012; Lazarewicz et al., 2010; Hinman et al., 2013), in specific embodiments increases in power are observed by pairwise comparison of spectra before and after drug injection. Initial studies are consistent with this consideration (FIG. 2).
Electrophysiology in vivo. Tungsten microelectrodes (tip impedances=0.5M,Ω) are implanted stereotaxically in str. pyramidale of area CA 1, layer II of the EC, layer V of the medial PFC, or the shell of the NAc and secured to the skull with cement. After implantation, rats will be habituated to stay still under light restraint (a metal pole connecting the headstage to a rigid arm) in a narrow tube. On-going electrical activity will be recorded in the absence of anesthesia. Field potentials will be analyzed using Spike2 software.

[4] = slices from rats after 10 days CRS, L-655,708 0.7 mg/kg i.p. 24 hrs earlier

## CCOC(=O)c1ncn2c1[C@@H]1CCCN1C(=O)c1cc(OC)ccc1-2 [L-655,708, ethyl (13aS)-7-methoxy-9-oxo-11, 12,13,13 a-terahydro-9H-imidazo[1,5-a]pyrrolo[2,1-c] [1,4]benzodiazepine-1-carboxylate]
TA-CA1 synapses; slices from CRS rats, L-655,708 24 hrs earlier, compared to vehicle-treated CRS animals
  AMPA:NMDA ratio: significantly higher
TA-CA1 synapses; [4]
  AMPAR-mediated signaling at TA-CA1 synapses (slope of AMPAR component of fEPSP): reversed rapidly
  slope of the NMDA component of the fEPSP: no corresponding difference
[1]
  selectivity for GABAARs containing the alpha5 subunit: 10-100 fold
Unstressed rats
  social interaction: no change
  sucrose preference: no change
[2]
  effect on amnestic properties of etomidate: reverse the amnestic properties
[3]; CA1 and NAc shell
  persistence of increase in oscillatory activity: persisted for more than one hour
[3]; str. pyramidale of area CA1 and NAc shell, after injection
  oscillatory activity (theta and beta frequency bands): rapid increase
